The text below walks through data of patent publication US6596878B2, “Methods and compositions for inhibiting cell proliferative disorders” (Yissum Research & Development Company of the Hebrew …, priority 1994, dated 2003).

Each structure is given as a SMILES string.

One experiment has as its system NIH3T3 cells. Description: 3T3 growth assay, NIH3T3C7 control cells. The class given is cell-based. To be noted: Mus musculus, NIH3T3, 96 h, Table VI, 10% CS, 4 days. The text has this:
(§1) This example illustrates the ability of the exemplary compounds to inhibit receptor tyrosine kinases, such as HER2 and/or EGFR. The following target cells were used for cellular kinaseassays: NIH3T3 clone C7 (Honegger et al., supra) engineered to over-express human EGF receptor; NIH3T3 cells engineered to over-express a chimeric receptor containing the EGFR extracellular domain and the HER2 intracellular kinase domain; the human mammary carcinoma line BT474 (ATCC HTB2) expressing HER2; and the human glioblastoma line U1242 that expresses PDGFR-β. Growth assays were carried out using human mammary epithelial SKBR3 (ATCC HTB30) cells, SKOV3 (ATCC HTB77) human ovarian cancer cell line, A431 cells, MCF7 human breast carcinoma cells, MCF7 cells overexpress the HER2 kinase (MCF7-HER2), NIH3T3 cells, and NIH3T3 cells overexpressing the HER2 kinase (3T3-HER2).
(§2) The 3T3 growth assay was carried out as follows:
(§3) (1) Dulbecco's Modified Eagle Medium (D-MEM), Gibco 11965-050;
(§4) (4) Fetal Bovine Serum Certified, Gibco 16000-028;
(§5) (5) Dulbecco's Phosphate-Buffered Saline (D-PBS), Gibco 14190-029;
(§6) (6) Sulforhodamine B (SRB), Sigma S-9012. 0.4% SRB in 1% acetic acid;
(§7) (7) 10 mM Tris-base, Fisher BP152-5;
(§8) (8) 10% TCA, Trichloroacetic acid, Fisher A322-500;
(§9) (9) 96-well flat bottom plate (sterile), Corning 08-757-155;
(§10) (10) 100 ml reagent reservoir 9 (sterile), Matrix Technologies Corporation, 8086;
(§11) (11) Sterile pipet tips, Fisher 21-197-8E;
(§12) NIH3T3C7 cells in 10% CS+2 mM GLN DMEM HER2C7 cells in 2% FBS+2 mM GLN DMEM
(§13) (1) HER2C7 (engineered to express HER2) and NIH3T3C7 (as the control) cells are used for this assay. NIH3T3C7 cells are seeded at 2500 cells/well, […] in 10% CS+2 mM GLN DMEM, in a 96 well plate; HER2C7 cells are seeded at 6000 cells/well, 100 μl/well in 2% FBS+2 mM GLN DMEM, in a 96 well plate. Cells are incubated at 37° C., 5% CO2 overnight to allow for cell attachment to the plate;
(§14) (2) The test compound is added to the cells at day 2. The compounds are prepared in the appropriate growth medium (10% CS+2 mM) GLN DMEM for NIH3T3C7 cells; 2% FBS+2 mM GLN DMEM for HER2C7 cells) in a 96 well plate, and serially diluted. A total of 100 μl/well medium of the diluted compounds is added into the cells. The total volume of each well is 200 μl. Quadruplicates (wells) and 11 concentration points are applied to each compound tested.
(§15) (3) After the cells are treated with the compound for 4 days, the cells are washed with PBS and fixed with 200 μl/well ice-cold 10% TCA for one hour at 0-5° C. condition.
(§16) (4) Remove TCA and rinse wells 5 times with deionized water. Dry plates upside down with paper towels. Stain cells with 0.4% SRB at 100 μl/well for 10 minutes.
(§17) (5) Pour off SRB and rinse plate 5 times with 1% acetic acid. Dry plate completely.
(§18) (6) Solubilize the dye with 10 mM Tris-base at 100 μl/well for 10 minutes on a shaker.
(§19) (7) Read the plate at dual wavelengths at 570 nm and 630 nm on Dynatech Elisa plate reader.

For experiment [1], the system named is NIH3T3 cells overexpressing the HER2 kinase (3T3-HER2). Description: 3T3 growth assay, HER2C7 cells (3T3-HER2). The class given is cell-based. To be noted: Mus musculus, NIH3T3, 96 h, Table VI, 2% FBS, 4 days.
Text: as §1, §2, §3, §4, §5, §6, §7, §8, §9, §10, §11, §12, §13, §14, §15, §16, §17, §18, §19

In the case of `CC(C)(C)c1cc(/C=C(\C#N)C(N)=S)cc(C(C)(C)C)c1O` [Compound M11], the IC50 (as a rule, the midpoint of a concentration-inhibition curve) was found to be 75 µM in the experiment with NIH3T3 cells and 30 µM in experiment [1].

`CC(C)(C)c1cc(/C=C(\C#N)C(=O)NCCCc2ccccc2)cc(C(C)(C)C)c1O` [Compound M20, (E)-3-(3,5-di-t-Butyl-4-hydroxyphenyl)-2-[(3-phenyl-n-propyl)aminocarbonyl]acrylonitrile]: the concentration for half-maximal inhibition (IC50) was found to be 90 µM in the experiment with NIH3T3 cells and 4 µM in experiment [1].

For the molecule `CC(C)c1cc(/C=C(\C#N)C(=O)NCCCc2ccccc2)cc(C(C)C)c1O` [Compound M21, (E)-3-(3,5-Diisopropyl-4-hydroxyphenyl)-2-[(3-phenyl-n-propyl)aminocarbonyl]acrylonitrile], the IC50 in the experiment on NIH3T3 cells is over 100 µM; in experiment [1], 70 µM.

In the case of `CC(C)c1cc(/C=C(\C#N)S(=O)(=O)c2ccccn2)cc(C(C)C)c1O` [Compound M26], the IC50 (with NIH3T3 cells; in experiment [1]) was over 100 µM in each case.

For `CC(C)c1cc(/C=C(\C#N)S(=O)(=O)CC#N)cc(C(C)C)c1O` [Compound M27], the IC50 with NIH3T3 cells was over 100 µM; in experiment [1] it was 50 µM.

As to `CC(C)c1cc(/C=C(\C#N)S(=O)(=O)/C(C#N)=C/c2cc(C(C)C)c(O)c(C(C)C)c2)cc(C(C)C)c1O` [Compound M29], the IC50 is over 100 µM in the experiment with NIH3T3 cells and 15 µM in experiment [1].

As for `CC(C)c1cc(/C=C(\C#N)S(=O)(=O)c2ccccc2)cc(C(C)C)c1O` [Compound M30], the values for the IC50 (in the experiment with NIH3T3 cells; in experiment [1]) were 70 µM and 12 µM, respectively.

Turning to `Cc1cc(/C=C(\C#N)S(=O)(=O)c2ccccc2)cc(C)c1O` [Compound M31], the IC50 (in the experiment on NIH3T3 cells; in experiment [1]) was over 100 µM in each case.

For `Cc1cc(/C=C(\C#N)S(=O)(=O)c2ccccn2)cc(C)c1O` [Compound M32], the half-maximal inhibitory concentration (IC50) in the experiment with NIH3T3 cells was over 100 µM; in experiment [1], 80 µM.

On to `CC(C)(C)c1cc(/C=C(\C#N)S(=O)(=O)c2ccccc2)cc(C(C)(C)C)c1O` [Compound M33, (E)-3-(3,5-di-t-Butyl-4-hydroxyphenyl)-2-(phenylsulfonyl)acrylonitrile], for which the half-inhibitory concentration (IC50) in the experiment with NIH3T3 cells turned out to be 35 µM; in experiment [1], 9 µM.

With `CC(C)(C)c1cc(/C=C(\C#N)S(=O)(=O)c2ccccn2)cc(C(C)(C)C)c1O` [Compound M34, (E)-3-(3,5-di-t-Butyl-4-hydroxyphenyl)-2-[(pyrid-2-yl)sulfonyl]acrylonitrile], the IC50 was 40 µM in the experiment on NIH3T3 cells and 5.5 µM in experiment [1].

For `CC(C)(C)c1cc(/C=C(\C#N)C(=O)Nc2ccc(C(F)(F)F)cc2)cc(C(C)(C)C)c1O` [Compound M35, (E)-3-(3,5-di-t-Butyl-4-hydroxyphenyl)-2-[(4-trifluoromethyl)phenylaminocarbonyl]acrylonitrile], the IC50 with NIH3T3 cells stood at 18 µM; in experiment [1] it was 0.25 µM.
